Data published in patent US6914045B2, “Glycopeptide antibiotics” (Wyeth Holdings Corporation, priority 2001, dated 2005).
In brackets after ≈: the same amount, converted by molar mass.

How the values were obtained:
Test in all cases: in vitro antibacterial evaluation, MIC by broth dilution
Type in all cases: cell-based
Staphylococcus sp. = details: broth dilution, 18 hours at 35° C.; for MIC Staphylococcus aureus (GC 1131): strain GC 1131
Method in brief: (§1)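 Inoculum 5×10^5 CFU/mL; concentrations 64 to 0.06 μg/mL; MIC defined as lowest inhibitory level. Conducted by broth dilution under NCCLS guidelines.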

Escherichia coli = test system: Escherichia coli
Method in brief: as §1

Streptococcus sp. = details: broth dilution, 18 hours at 35° C.
Method in brief: as §1

Enterococcus sp. = details: broth dilution, 18 hours at 35° C.
Method in brief: as §1

COc1cc(C2OCC3OC(OC4C(CO)OC(Oc5ccc(CC6NC(=O)C(C(C)c7ccccc7)NC(=O)CNC(=O)C(CO)NC(=O)C(C(O)C7CNC(=N)N7C7OC(CO)C(O)C(O)C7O)NC(=O)C(C(O)C7CNC(=N)N7)NC6=O)cc5)C(O)C4O)C(O)C(O)C3O2)ccc1[N+](=O)[O-] (centres unmarked) [Example 153]
MIC Staphylococcus aureus (GC 1131) (Staphylococcus sp.; inoculum 5×10^5 CFU/mL): 2 µg/mL (≈ 1.37 µM) | MIC Staphylococcus aureus (ATCC 29213) (Staphylococcus sp.; strain ATCC 29213): 2 µg/mL (≈ 1.37 µM) | MIC Staphylococcus aureus (GC 1131) (Staphylococcus sp.): 2 µg/mL (≈ 1.37 µM) | MIC Staphylococcus aureus (GC 3051) (Staphylococcus sp.; strain GC 3051): 2 µg/mL (≈ 1.37 µM) | MIC Staphylococcus aureus (GC 3053) (Staphylococcus sp.; strain GC 3053): 4 µg/mL (≈ 2.74 µM) | MIC Staphylococcus aureus (GC 4541) (Staphylococcus sp.; strain GC 4541): 2 µg/mL (≈ 1.37 µM) | MIC Staphylococcus aureus (GC 4542) (Staphylococcus sp.; strain GC 4542): 2 µg/mL (≈ 1.37 µM) | MIC Staphylococcus aureus-SMITH (GC 4543) (Staphylococcus sp.; strain GC 4543): 1 µg/mL (≈ 0.686 µM) | MIC Staphylococcus aureus (GC 4544) (Staphylococcus sp.; strain GC 4544): 2 µg/mL (≈ 1.37 µM) | MIC Staphylococcus aureus (GC 4545) (Staphylococcus sp.; strain GC 4545): 2 µg/mL (≈ 1.37 µM) | MIC Staphylococcus haemolyticus (GC 4546) (Staphylococcus sp.; strain GC 4546): 1 µg/mL (≈ 0.686 µM) | MIC Coagulase Negative Staphylococcus (GC 4547) (Staphylococcus sp.; strain GC 4547): 1 µg/mL (≈ 0.686 µM) | MIC Coagulase Negative Staphylococcus (GC 4548) (Staphylococcus sp.; strain GC 4548): 0.5 µg/mL (≈ 0.343 µM) | MIC Coagulase Negative Staphylococcus (GC 4549) (Staphylococcus sp.; strain GC 4549): 0.5 µg/mL (≈ 0.343 µM) | MIC Coagulase Negative Staphylococcus (GC 4551) (Staphylococcus sp.; strain GC 4551): 2 µg/mL (≈ 1.37 µM) | MIC Coagulase Negative Staphylococcus (GC 6257) (Staphylococcus sp.; strain GC 6257): 0.5 µg/mL (≈ 0.343 µM) | MIC Staphylococcus aureus-SMITH (GC 4543) (Staphylococcus sp.; strain SMITH GC 4543): 1 µg/mL (≈ 0.686 µM) | MIC Escherichia coli (ATCC 25922) (Escherichia coli; strain ATCC 25922, 18 hours at 35° C.): 64 µg/mL (≈ 43.9 µM) | MIC Escherichia coli (GC 4559) (Escherichia coli; strain GC 4559, 18 hours at 35° C.): 64 µg/mL (≈ 43.9 µM) | MIC Streptococcus agalactiae (GC 4564) (Streptococcus sp.; Streptococcus agalactiae (GC 4564)): 0.5 µg/mL (≈ 0.343 µM) | MIC Streptococcus pneumoniae (ATCC 6301) (Streptococcus sp.; Streptococcus pneumoniae (ATCC 6301)): <0.06 µg/mL | MIC Streptococcus pneumoniae (GC 1894) (Streptococcus sp.; Streptococcus pneumoniae (GC 1894)): <0.06 µg/mL | MIC Streptococcus pneumoniae (GC 4565) (Streptococcus sp.; Streptococcus pneumoniae (GC 4565)): <0.06 µg/mL | MIC Streptococcus pyogenes (GC 4563) (Streptococcus sp.; Streptococcus pyogenes (GC 4563)): 0.25 µg/mL (≈ 0.171 µM) | MIC Streptococcus pneumoniae (ATCC 6301) (Streptococcus sp.; strain ATCC 6301): <0.06 µg/mL | MIC Streptococcus pneumoniae (GC 1894) (Streptococcus sp.; strain GC 1894): <0.06 µg/mL | MIC Streptococcus pyogenes (GC 4563) (Streptococcus sp.; strain GC 4563): 0.25 µg/mL (≈ 0.171 µM) | MIC Streptococcus agalactiae (GC 4564) (Streptococcus sp.; strain GC 4564): 0.5 µg/mL (≈ 0.343 µM) | MIC Streptococcus pneumoniae (GC 4565) (Streptococcus sp.; strain GC 4565): <0.06 µg/mL | MIC Enterococcus avium (GC 4558) (Enterococcus sp.; Enterococcus avium (GC 4558)): 8 µg/mL (≈ 5.49 µM) | MIC Enterococcus faecalis (ATCC 29212) (Enterococcus sp.; Enterococcus faecalis (ATCC 29212)): 8 µg/mL (≈ 5.49 µM) | MIC Enterococcus faecalis (GC 2242) (Enterococcus sp.; Enterococcus faecalis (GC 2242)): 4 µg/mL (≈ 2.74 µM) | MIC Enterococcus faecalis (GC 2691) (Enterococcus sp.; Enterococcus faecalis (GC 2691)): 8 µg/mL (≈ 5.49 µM) | MIC Enterococcus faecalis (GC 3059) (Enterococcus sp.; Enterococcus faecalis (GC 3059)): 8 µg/mL (≈ 5.49 µM) | MIC Enterococcus faecalis (GC 4552) (Enterococcus sp.; Enterococcus faecalis (GC 4552)): 8 µg/mL (≈ 5.49 µM) | MIC Enterococcus faecalis (GC 4553) (Enterococcus sp.; Enterococcus faecalis (GC 4553)): 8 µg/mL (≈ 5.49 µM) | MIC Enterococcus faecalis (GC 4554) (Enterococcus sp.; Enterococcus faecalis (GC 4554)): 8 µg/mL (≈ 5.49 µM) | MIC Enterococcus faecalis (GC 6189) (Enterococcus sp.; Enterococcus faecalis (GC 6189)): 4 µg/mL (≈ 2.74 µM) | MIC Enterococcus faecium (GC 2243) (Enterococcus sp.; Enterococcus faecium (GC 2243)): 4 µg/mL (≈ 2.74 µM) | MIC Enterococcus faecium (GC 4556) (Enterococcus sp.; Enterococcus faecium (GC 4556)): 4 µg/mL (≈ 2.74 µM) | MIC Enterococcus faecium (GC 4557) (Enterococcus sp.; Enterococcus faecium (GC 4557)): 2 µg/mL (≈ 1.37 µM) | MIC Enterococcus faecalis (ATCC 29212) (Enterococcus sp.; strain ATCC 29212): 8 µg/mL (≈ 5.49 µM) | MIC Enterococcus faecalis (GC 2242) (Enterococcus sp.; strain GC 2242): 4 µg/mL (≈ 2.74 µM) | MIC Enterococcus faecium (GC 2243) (Enterococcus sp.; strain GC 2243): 4 µg/mL (≈ 2.74 µM) | MIC Enterococcus faecalis (GC 2691) (Enterococcus sp.; strain GC 2691): 8 µg/mL (≈ 5.49 µM) | MIC Enterococcus faecalis (GC 3059) (Enterococcus sp.; strain GC 3059): 8 µg/mL (≈ 5.49 µM) | MIC Enterococcus faecalis (GC 4552) (Enterococcus sp.; strain GC 4552): 8 µg/mL (≈ 5.49 µM) | MIC Enterococcus faecalis (GC 4553) (Enterococcus sp.; strain GC 4553): 8 µg/mL (≈ 5.49 µM) | MIC Enterococcus faecalis (GC 4554) (Enterococcus sp.; strain GC 4554): 8 µg/mL (≈ 5.49 µM) | MIC Enterococcus faecium (GC 4556) (Enterococcus sp.; strain GC 4556): 4 µg/mL (≈ 2.74 µM) | MIC Enterococcus faecium (GC 4557) (Enterococcus sp.; strain GC 4557): 2 µg/mL (≈ 1.37 µM) | MIC Enterococcus avium (GC 4558) (Enterococcus sp.; strain GC 4558): 8 µg/mL (≈ 5.49 µM) | MIC Enterococcus faecalis (GC 6189) (Enterococcus sp.; strain GC 6189): 4 µg/mL (≈ 2.74 µM)
